The source of these data is patent US7557110B2, “Pyrazolo[1,5-A] pyrimidine derivatives” (Teijin Pharma Limited, priority 2003, dated 2009).

Data set [1] deals with MAPKAP-K2 (Homo sapiens, UniProt P49137). In words: MAPKAP-K2 enzyme activity inhibition (33P-ATP filter plate kinase assay). Note: key: +: active; ++: more active; +++: very active. It counts as biochemical. The conditions noted are these: MAPKAP-K2 inhibitory activity; assays conducted at typically 1-100 μM. The procedure: [General Procedure for Measurement of MAPKAP-K2 Enzyme Activity Inhibition]
After conducting the reaction for 30 minutes at room temperature, an equivalent volume of a 200 mM phosphoric acid solution was added to suspend the reaction, and 90 μL of the reaction product was adsorbed onto a MultiScreen PH plate (Millipore) and rinsed with a 100 mM phosphoric acid solution. After drying the plate, 30 μL of MicroScint-O (Packard BioScience) was added, and the cpm was measured with a scintillation counter to determine the inhibiting activity. Substrate peptide is […]

The target in data set [2] is CDK-2 (Homo sapiens, UniProt P24941). In words: CDK-2 enzyme activity inhibition (33P-ATP filter plate kinase assay). It counts as biochemical. From the text:
[General Procedure for Measurement of CDK-2 Enzyme Activity Inhibition]

The mark [3] stands for this setting: read-out: CDK-2 inhibition IC50.

Each structure is given as a SMILES string. Read-outs that look alike come from different tables or passages of the source.

Sequence of MAPKAP-K2 (P49137 whole entry): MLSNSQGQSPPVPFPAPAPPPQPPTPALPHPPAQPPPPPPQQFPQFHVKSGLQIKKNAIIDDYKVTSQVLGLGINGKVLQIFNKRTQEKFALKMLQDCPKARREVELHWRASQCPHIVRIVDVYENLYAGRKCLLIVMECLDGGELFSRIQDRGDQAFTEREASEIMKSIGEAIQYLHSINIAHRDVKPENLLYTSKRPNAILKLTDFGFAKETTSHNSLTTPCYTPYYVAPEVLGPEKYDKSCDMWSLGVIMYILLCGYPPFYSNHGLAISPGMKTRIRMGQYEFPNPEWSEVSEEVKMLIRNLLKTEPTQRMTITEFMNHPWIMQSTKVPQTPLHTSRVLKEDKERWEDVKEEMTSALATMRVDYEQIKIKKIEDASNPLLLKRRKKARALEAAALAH

As usually defined, the melting point is the temperature of the solid-liquid transition. For orientation: IC50 means the midpoint of a concentration-inhibition curve. Regarding `Cc1c(N[C@H]2CC[C@H](N)CC2)nc2ccnn2c1Nc1ccc2c(c1)OCCO2` [Compound 126], the melting point lay within 68 to 72 °C. Further, the “activity (efficacy against MAPKAP-K2)” value in data set [1] is “+++”. The IC50 in data set [2] (setting [3]) is less than 100 µM.
In the same order, the values of `CCc1c(N[C@H]2CC[C@H](N)CC2)nc2ccnn2c1Nc1ccc(I)cc1` [Compound 168] are 104 to 106 °C, “++” and less than 100 µM.
For `CCOc1ccc(Nc2c(C)c(N[C@H]3CC[C@H](N)CC3)nc3c(CO)cnn23)cc1` [Compound 92], the melting point was in the range of 101 to 104 °C. Moreover, the IC50 in data set [2] (setting [3]) was less than 100 µM.
Take `CCc1c(NC2CCCNC2)nc2ccnn2c1Nc1ccc(Oc2ccc(C)cc2)cc1` (stereo not shown) [Compound 63]: the “activity (efficacy against MAPKAP-K2)” value in data set [1] is “+++”. In addition, in data set [2] (setting [3]), the IC50 is less than 100 µM.
Regarding `Cc1c(N[C@H]2CC[C@H](N)CC2)nc2ccnn2c1Nc1ccc(-c2cn[nH]c2)cc1` [Compound 422], the “activity (efficacy against MAPKAP-K2)” value in data set [1] was “+++”. The IC50 in data set [2] (setting [3]) was less than 100 µM.
In the same order, the values of `COc1c(N[C@H]2CC[C@H](N)CC2)nc2ccnn2c1Nc1ccc(F)c(Cl)c1` [Compound 172] are “++” and less than 100 µM.
Take `Cc1nn2c(Nc3ccc(F)c(Cl)c3)cc(N[C@H]3CC[C@H](N)CC3)nc2c1Br` [Compound 6]: the melting point was 224 to 226 °C (dec.). The IC50 in data set [2] (setting [3]) is less than 100 µM.
With `N#Cc1cnn2c(Nc3ccc(F)c(Cl)c3)cc(N[C@H]3CC[C@H](N)CC3)nc12` [Compound 1], the “activity (efficacy against MAPKAP-K2)” value in data set [1] is given as “++”. The molecule also had an IC50 in data set [2] of less than 100 µM.
As to `Cc1c(N[C@H]2CC[C@H](N)CC2)nc2ccnn2c1Nc1ccc(-c2cccc(O)c2)cc1` [Compound 307], the “activity (efficacy against MAPKAP-K2)” value in data set [1] was “+++”. Also, in data set [2] (setting [3]), the IC50 was less than 100 µM.
The corresponding values for `Cc1c(N[C@H]2CC[C@H](N)CC2)nc2ccnn2c1Nc1ccc(OC(F)(F)F)c(Cl)c1` [Compound 785] are “+++” and less than 100 µM.
In the same order, the values of `Cc1c(N[C@H]2CC[C@H](N)CC2)nc2ccnn2c1Nc1ccc(C(=O)NCc2ccco2)cc1` [Compound 511] are “+++” and less than 100 µM.
In the same order, the values of `Cc1c(N[C@H]2CC[C@H](N)CC2)nc2ccnn2c1Nc1ccc(-c2ccccc2C(F)(F)F)cc1` [Compound 323] are “++” and less than 100 µM.
`CCOc1ccc(Nc2c(C)c(N[C@@H]3CCNC3)nc3ccnn23)cc1` [Compound 412]: the “activity (efficacy against MAPKAP-K2)” value in data set [1] was “++”. The IC50 in data set [2] (setting [3]) is less than 100 µM.
As for `Cc1c(N[C@H]2CC[C@H](N)CC2)nc2ccnn2c1Nc1cccc(OCc2cccnc2)c1` [Compound 274], in data set [1], the “activity (efficacy against MAPKAP-K2)” value is “++”. Also, the IC50 in data set [2] (setting [3]) was less than 100 µM.
The corresponding values for `Cc1c(N[C@H]2CC[C@H](N)CC2)nc2ccnn2c1Nc1ccc(C(=O)NC2CCCC2)cc1` [Compound 463] are “+++” and less than 100 µM.
Take `Cc1cscc1-c1ccc(Nc2c(C)c(N[C@H]3CC[C@H](N)CC3)nc3ccnn23)cc1` [Compound 421]: in data set [1], the “activity (efficacy against MAPKAP-K2)” value is on record as “+++”. Further, in data set [2] (setting [3]), the IC50 is less than 100 µM.
Turning to `CCCCC(=O)c1cnn2c(Nc3ccc(OCC)cc3)c(C)c(N[C@H]3CC[C@H](N)CC3)nc12` [Compound 362], the “activity (efficacy against MAPKAP-K2)” value in data set [1] was “++”. In addition, the IC50 in data set [2] (setting [3]) was less than 100 µM.
The corresponding values for `COc1ccc(Nc2c(C)c(N[C@H]3CC[C@H](N)CC3)nc3ccnn23)cc1` [Compound 203] are “+++” and less than 100 µM.
The corresponding values for `CCc1c(NC2CCCNC2)nc2ccnn2c1Nc1ccc(Br)cc1` (stereo not shown) [Compound 160] are “++” and less than 100 µM.
In the same order, the values of `Cc1c(N[C@H]2CC[C@H](N)CC2)nc2ccnn2c1Nc1ccc(-c2ccc(OC(F)(F)F)cc2)cc1` [Compound 317] are “+++” and less than 100 µM.
As to `CC(=O)c1ccc(-c2ccc(Nc3c(C)c(N[C@H]4CC[C@H](N)CC4)nc4ccnn34)cc2)s1` [Compound 355], the “activity (efficacy against MAPKAP-K2)” value in data set [1] was “+++”. The IC50 in data set [2] (setting [3]) is less than 100 µM.
Turning to `CC(=O)c1ccc(-c2ccc(Nc3c(C)c(N[C@H]4CCCNC4)nc4ccnn34)cc2)s1` [Compound 773], the “activity (efficacy against MAPKAP-K2)” value in data set [1] is “+++”. The same molecule yielded an IC50 in data set [2] of less than 100 µM.
For `Cc1c(NC2CCCNC2)nc2ccnn2c1Nc1ccc(-c2cccc(N)c2)cc1` (stereo not shown) [Compound 444], the “activity (efficacy against MAPKAP-K2)” value in data set [1] is “+++”. In data set [2] (setting [3]), the IC50 was less than 100 µM.
The corresponding values for `Cc1c(NC2CCC(N)CC2)nc2ccnn2c1Nc1ccc(OCC2CCCN(C)C2)cc1` (stereo not shown) [Compound 226] are “+++” and less than 100 µM.
The corresponding values for `Cc1c(N[C@H]2CC[C@H](N)CC2)nc2ccnn2c1Nc1ccc(-c2ccccc2)cc1` [Compound 284, {5-[(trans-4-aminocyclohexyl)amino]-6-methyl(pyrazolo[1,5-a]pyrimidin-7-yl)}(4-phenylphenyl)amine] are “+++” and less than 100 µM.
The corresponding values for `Cc1c(N[C@H]2CC[C@H](N)CC2)nc2ccnn2c1Nc1ccc(OCCc2ccccn2)cc1` [Compound 225] are “+++” and less than 100 µM.
As to `Cc1c(N[C@H]2CC[C@H](N)CC2)nc2ccnn2c1Nc1ccc(-c2ccc(N)cc2)cc1` [Compound 301], in data set [1], the “activity (efficacy against MAPKAP-K2)” value is listed as “+++”. In addition, the IC50 in data set [2] (setting [3]) was less than 100 µM.
In the same order, the values of `CCc1c(N[C@H]2CC[C@H](N)CC2)nc2ccnn2c1Nc1cccc(C)c1` [Compound 72] are “+++” and less than 100 µM.
In the same order, the values of `Cc1c(N[C@H]2CC[C@H](N)CC2)nc2ccnn2c1Nc1ccc(OC2CCN(C)CC2)cc1` [Compound 217] are “++” and less than 100 µM.
For `Cc1c(N[C@H]2CC[C@H](N)CC2)nc2ccnn2c1Nc1ccc2cn[nH]c2c1` [Compound 131], in data set [1], the “activity (efficacy against MAPKAP-K2)” value was “+++”. In addition, the IC50 in data set [2] (setting [3]) is less than 100 µM.
In the same order, the values of `Cc1c(N[C@H]2CC[C@H](N)CC2)nc2ccnn2c1Nc1ccc(-c2cccc(OC(F)(F)F)c2)cc1` [Compound 316] are “+++” and less than 100 µM.
In the same order, the values of `Cc1c(N[C@H]2CC[C@H](N)CC2)nc2ccnn2c1Nc1ccc(-c2cccc(CO)c2)cc1` [Compound 353] are “+++” and less than 100 µM.
The corresponding values for `CCOc1ccc(Nc2cc(N[C@H]3CC[C@H](N)CC3)nc3c(C#N)cnn23)cc1` [Compound 64] are “+++” and less than 100 µM.
For `COCc1cccc(-c2ccc(Nc3c(C)c(N[C@H]4CC[C@H](N)CC4)nc4ccnn34)cc2)c1` [Compound 354], in data set [1], the “activity (efficacy against MAPKAP-K2)” value is on record as “+++”. Besides, the IC50 in data set [2] (setting [3]) was less than 100 µM.
In the same order, the values of `Cc1c(N[C@H]2CC[C@H](N)CC2)nc2ccnn2c1Nc1cccc(OCc2ccccc2)c1` [Compound 243] are “++” and less than 100 µM.
In the same order, the values of `Cc1c(N[C@H]2CC[C@H](N)CC2)nc2ccnn2c1Nc1ccc(-c2cc3ccccc3o2)cc1` [Compound 290] are “+++” and less than 100 µM.
The corresponding values for `Cc1c(N[C@H]2CC[C@H](N)CC2)nc2ccnn2c1Nc1ccc(-c2ccncc2)cc1` [Compound 299] are “+++” and less than 100 µM.
`CCc1c(N[C@H]2CC[C@H](N)CC2)nc2ccnn2c1Nc1ccc(N2CCCC2=O)cc1` [Compound 125]: the “activity (efficacy against MAPKAP-K2)” value in data set [1] is listed as “++”. Further, in data set [2] (setting [3]), the IC50 was less than 100 µM.
For `Cc1c(N[C@H]2CC[C@H](N)CC2)nc2ccnn2c1Nc1ccc(OCCCl)cc1` [Compound 199], the “activity (efficacy against MAPKAP-K2)” value in data set [1] was “+++”. Further, the IC50 in data set [2] (setting [3]) was less than 100 µM.
In the same order, the values of `Cc1c(N[C@H]2CC[C@H](N)CC2)nc2ccnn2c1Nc1ccc(-c2ccccc2Cl)cc1` [Compound 313] are “++” and less than 100 µM.
In the case of `COc1cccc(Nc2c(C)c(N[C@H]3CC[C@H](N)CC3)nc3ccnn23)c1` [Compound 91], the “activity (efficacy against MAPKAP-K2)” value in data set [1] is recorded as “++”. In addition, in data set [2] (setting [3]), the IC50 is less than 100 µM.
In the same order, the values of `CCc1c(N[C@H]2CC[C@H](N)CC2)nc2ccnn2c1Nc1cccc(OCc2ccccc2)c1` [Compound 74] are “++” and less than 100 µM.
In the same order, the values of `Cc1c(N[C@H]2CC[C@H](N)CC2)nc2ccnn2c1Nc1ccc(-c2ccc(O)cc2)cc1` [Compound 306] are “+++” and less than 100 µM.
In the case of `Cc1c(N[C@H]2CC[C@H](N)CC2)nc2c(F)cnn2c1Nc1ccc(I)cc1` [Compound 441, {5-[(trans-4-aminocyclohexyl)amino]-3-fluoro-6-methyl(pyrazolo[1,5-a]pyrimidin-7-yl)}(4-iodophenyl)amine], the “activity (efficacy against MAPKAP-K2)” value in data set [1] was “+++”. Besides, the IC50 in data set [2] (setting [3]) is less than 100 µM.
The corresponding values for `Cc1c(N[C@H]2CC[C@H](N)CC2)nc2ccnn2c1Nc1ccc(-c2cccc(N(C)C)c2)cc1` [Compound 315] are “+++” and less than 100 µM.
In the same order, the values of `Cc1c(N[C@H]2CC[C@H](N)CC2)nc2ccnn2c1Nc1ccc(-c2ccc(N(C)C)cc2)cc1` [Compound 314] are “+++” and less than 100 µM.
